Source: patent US12077513B2, “Process route of compound of formula (IV), crystal form and preparation method therefor” (SHANDONG DANHONG PHARMACEUTICAL CO., LTD., priority 2018, dated 2024)
One block for each molecule: values may come before it.

How the values were obtained:
[1] = Solid stability test, crystal form characterized by XRPD; type: physicochemical
Experimental: An electronic balance was used to accurately weigh 60 mg sample of crystal form B of compound (IV) (3 samples in parallel for each stability test condition). The samples were placed in a dry and clean 5 mL beaker and spread into a thin layer. The aluminum foil was pierced with holes and placed on the beaker, fixed with rubber bands. The beaker was placed in tbc environment of various stability test conditions and remained for sampling at investigation time. The samples were investigated at 60° C. (5 days, 10 days), 25° C./92.5% RH (5 days, 10 days), 40° C./75% RH (one month, two months, three months), 60° C./75% RH (one month, two months) and light (10 days) conditions. X-ray powder diffraction (XRPD) was used to characterize the solid under various conditions.

[2] = target: Human recombinant VAP-1/SSAO enzyme (Homo sapiens (Human), UniProt Q16853); experiment: Human VAP-1 enzyme activity assay (Amplex Red Monoamine Oxidase Kit); type: biochemical; settings: for Inhibitory activity against human recombinant VAP-1/SSAO enzyme (conclusion in words): in vitro
Experimental: Human VAP-1 Enzyme Activity Assay:
Amplex® Red Monoamine Oxidase Kit (Invitrogen #A12214) was used to determine the inhibitory effects of the sample on VAP-1 enzyme activity. 100 nL Test compound (the solvent was DMSO) that had been gradiently diluted was added to a 384-well plate. 25 μL 10 nM VAP-1 enzyme solution was added, and the solution was incubated at room temperature for 30 minutes. The substrate mixture which had been added […] (200 μM Amplex Red, 1 U/mL HRP, 1 mM Benzylamine) was incubated at room temperature for 60 minutes. After the incubation, the fluorescence signal was read with a microplate reader Envision (excitation light wavelength 530-560 nm, emission light wavelength 590 nm). The fluorescence signal value after removing the background signal was analyzed with Prism software. The IC50 of the sample to the VAP-1 enzyme was calculated.

[3] = target: VAP-1/SSAO cell (Homo sapiens (Human), UniProt Q16853); experiment: VAP-1 cell activity assay (HUVEC or CHO cells transfected with VAP-1/pCDNA (3.1) plasmid, Amplex Red); type: cell-based; settings: for Inhibitory activity against VAP-1/SSAO cells (conclusion in words): in vitro
Experimental: Amplex® Red Monoamine Oxidase Kit (Invitrogen #A12214) was used to determine the inhibitory effect of the sample on VAP-1 enzyme activity.
The HUVEC or CHO cells were plated onto a 6-well plate at a density of 0.8M/well, placed in a 37° C., 5% CO2 incubator for 24 hours, and then transfected with Lipo2000 reagent and VAP-1/pCDNA (3.1) plasmid. The medium was changed after 5 h (Lipo2000 is toxic to cells). After 24 h, the cells digested and plated into a 384-well plate at a density of 25 μl, 10000 cells/well, 6-7 h, and the cell medium was changed to the medium without FBS and the cell plate was placed in a 37° C. 5% CO2 incubator overnight.
• 1) Compound dilution: 4-fold serial dilution with 100% DMSO and diluted at 10 points. The initial concentration of the test compound was 0.5 mM (final concentration was […]); ECHO was used to transfer 100 nL of the compound solution to a 384-well cell detection plate. Negative control well: 100 nL DMSO; background control well: 100 nL DMSO+25 μL medium. • 2) Reaction was kept for 30 minutes at room temperature and protected from light. • 3) Amplex Red reagent+HRP+benzylamine substrate working solution preparation: • Amplex Red reagent+HRP+benzylamine substrate working solution (200 μM Amplex Red reagent+1 U/mL HRP+1 mM benzylamine): 45 μL of 20 mM Amplex Red reagent mother liquor, 22.5 μL of 200 U/mL horseradish peroxidase (HRP) mother liquor and 45 μL of 100 mM benzylamine were added to 4.3875 mL of 1× reaction buffer. • 4) After 30 minutes, 25 μL of the substrate working solution was added to a 384-well plate. […]

[4] = listed as crystal form B of the compound of formula (IV)

Chain of VAP-1/SSAO cell (Q16853 whole entry): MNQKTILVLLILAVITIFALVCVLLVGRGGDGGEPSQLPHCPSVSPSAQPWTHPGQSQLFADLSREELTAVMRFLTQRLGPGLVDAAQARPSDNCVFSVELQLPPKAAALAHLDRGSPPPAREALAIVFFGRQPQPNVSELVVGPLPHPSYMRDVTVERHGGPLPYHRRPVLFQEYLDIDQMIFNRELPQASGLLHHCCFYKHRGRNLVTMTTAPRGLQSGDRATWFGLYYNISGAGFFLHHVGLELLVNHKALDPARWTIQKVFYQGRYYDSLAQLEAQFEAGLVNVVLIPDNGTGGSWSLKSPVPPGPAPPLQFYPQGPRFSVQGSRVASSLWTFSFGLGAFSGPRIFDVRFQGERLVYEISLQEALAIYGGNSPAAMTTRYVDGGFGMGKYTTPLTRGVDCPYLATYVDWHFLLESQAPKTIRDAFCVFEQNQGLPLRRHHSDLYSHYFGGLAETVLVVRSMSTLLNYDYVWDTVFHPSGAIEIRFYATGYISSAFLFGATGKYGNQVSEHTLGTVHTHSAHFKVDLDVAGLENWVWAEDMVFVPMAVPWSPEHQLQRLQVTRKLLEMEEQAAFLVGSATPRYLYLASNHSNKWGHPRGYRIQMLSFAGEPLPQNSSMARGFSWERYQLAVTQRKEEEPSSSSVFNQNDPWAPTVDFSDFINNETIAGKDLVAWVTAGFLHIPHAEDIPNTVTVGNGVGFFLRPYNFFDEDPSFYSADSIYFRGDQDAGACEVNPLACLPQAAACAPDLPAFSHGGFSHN
Chain of Human recombinant VAP-1/SSAO enzyme (Q16853 whole entry): as above

- Stability (general statement in words) [1]: good stability
SMILES: CC(C)n1nc(-c2ccc(OC/C(=C/F)CN)cc2)nc1C1CC1 [Crystal form A]

- IC50 ([2]; 30 min preincubation, benzylamine substrate, read-out: Human recombinant VAP-1/SSAO enzyme inhibitory activity IC50): 0.71 ± 0.21 nM
- Inhibitory activity against human recombinant VAP-1/SSAO enzyme (conclusion in words) [2, 4]: strong inhibitory activity
- IC50 ([3]; VAP-1 transfected HUVEC or CHO cells, read-out: VAP-1/SSAO cell activity assay test IC50): 2.2 ± 1.49 nM
- Inhibitory activity against VAP-1/SSAO cells (conclusion in words) [3, 4]: strong inhibitory activity
SMILES: CC(C)n1nc(-c2ccc(OC/C(=C/F)CN)cc2)nc1C1CC1

- Inhibitory activity against human recombinant VAP-1/SSAO enzyme (conclusion in words) [2]: strong inhibitory activity
- Inhibitory activity against VAP-1/SSAO cells (conclusion in words) [3]: strong inhibitory activity
SMILES: CC(C)n1nc(-c2ccc(OC/C(=C/F)CN)cc2)nc1C1CC1 [Compound of formula (IV)]
